Data: US10806693B2, “Method for increasing lipolysis using a composition comprising bioactive Nelumbo nucifera (lotus) extract” (ISP Investments LLC, priority 2016, dated 2020)

Test: Lipolysis: glycerol release from differentiated 3T3-L1 adipocytes
Format: cell-based
Settings: 2 mM, twice a day for 48 hours
Description: This study aims to evaluate in vitro effect of Nelumbo nucifera (Lotus) Extract on lipolysis by evaluating glycerol release on preadipocytes. Lipolysis is the hydrolysis of triglycerides into glycerol and fatty acids. The amount of glycerol release will be proportional to both the amount of stored triglyceride and the degree of lipolysis 3T3-L1 pre-adipocytes (ATCC) were cultured in DMEM 4.5 g/L glucose (Lonza) supplemented with 10% of FBS (Lonza), 2 mM of L-Glutamine (Lonza) and 100 μg/ml of Primocin (InvivoGen). 2 days after the cells' confluence, differentiation into adipocytes was induced by adding 0.5 mM IBMX, 1 μM dexamethasone and 10 μg/ml insulin (Sigma) in the culture medium for 3 days. Afterwards, IBMX and dexamethasone were removed and only the insulin was maintained for 3 to 4 days; then, the insulin was also removed, and the cells were maintained in culture medium for another 3 days. After differentiation, cells were treated with Nelumbo nucifera (Lotus) Extract of example 1 diluted at 1/10.000 eme in culture medium, further noted as Lotus 0.01% (volume/volume) or with 2 mM caffeine positive control, twice a day for 48 hours. Then glycerol release was measured using Adipolysis Assay Kit (Cayman Chemical), according to the manufacturer's instructions.

Cn1c(=O)c2c(ncn2C)n(C)c1=O [Caffeine, caffeine]
Glycerol release (% of untreated): 131 % of untreated
